This is an account of results in patent US20110237594A1, “FUNGICIDE HERETOCYCLYL-TRIAZINYL-AMINO DERIVATIVES” (priority 2008, published 2011).

The subject of one series is Botrytis cinerea. In words: In vivo test on Botrytis cinerea (grey mould). The note with it: gherkin plants, sprayed 24 hours before contamination, dose 500 ppm, grading 5/7 days after contamination. How it is done:
Plants, used as controls, are treated with an aqueous solution not containing the active material. After 24 hours, the plants are contaminated by depositing drops of an aqueous suspension of Botrytis cinerea spores (150,000 spores per ml) on upper surface of the leaves. The spores are collected from a 15-day-old culture and are suspended in a nutrient solution composed of: • 20 g/L of gelatine; • 50 g/L of D-fructose; • 2 g/L of NH4NO3; • 1 g/L of KH2PO4. The contaminated cucumber plants are settled for 5/7 days in a climatic room at 15-11° C. […] Grading is carried out 5/7 days after the contamination, in comparison with the control plants. Under these conditions, good (at least 70%) or total protection is observed at a dose of 500 ppm with the following compound: A14
Regarding `CCC(C)Nc1cc(-c2ncnc(Nc3ccc(OC)nc3)n2)ccn1` (centres unmarked) [Compound A14], the “protection (good, at least 70%, or total)” value is recorded as “at least 70%”.

The next series relates to Pyrenophora teres. In words: In vivo test on Pyrenophora teres (barley net blotch). Conditions: barley plants, sprayed 24 hours before contamination, dose 500 ppm, grading 12 days after contamination. As to the method:
Barley plants (Express variety), sown on a 50/50 peat soil-pozzolana substrate in starter cups and grown at 12° C., are treated at the 1-leaf stage (10 cm tall) by spraying with the active ingredient prepared as described above. Plants, used as controls, are treated with an aqueous solution not containing the active material. After 24 hours, the plants are contaminated by spraying them with an aqueous suspension of Pyrenophora teres spores (12,000 spores per ml). The spores are collected from a 12-day-old culture. […] Grading is carried out 12 days after the contamination, in comparison with the control plants. Under these conditions, good (at least 70%) is observed at a dose of 500 ppm with the following compound: A14
Turning to `CCC(C)Nc1cc(-c2ncnc(Nc3ccc(OC)nc3)n2)ccn1` (centres unmarked) [Compound A14], the “protection (good, at least 70%)” value is on record as “at least 70%”.

The next series has as its system Pyricularia oryzae.
Test: not given
Type of series: in vivo. The note with it: rice, protective, 250 ppm of active ingredient, evaluated 5 days after inoculation.
In turn, `CCC(C)Nc1cc(-c2ncnc(Nc3ccc(OC)nc3)n2)ccn1` (centres unmarked) [Compound A14] registered an efficacy not below 80%.

For a further series, the system named is Rhizoctonia solani. In words: Rhizoctonia test (rice) / protective. Type of series: in vivo. The note with it: 250 ppm of active ingredient, evaluated 4 days after inoculation. As to the method:
To produce a suitable preparation of active compound, 1 part by weight of active compound is mixed with the stated amounts of solvent and emulsifier, and the concentrate is diluted with water to the desired concentration. To test for protective activity, young plants are sprayed with the preparation of active compound at the stated rate of application. One day after spraying, the plants are inoculated with a hypha of the causal agent of rice sheath blight (Rhizoctonia solani). The plants are then placed in an incubator at approximately 25° C. and a relative atmospheric humidity of approximately 100%.
Compound `CCC(C)Nc1cc(-c2ncnc(Nc3ccc(OC)nc3)n2)ccn1` (centres unmarked) [Compound A14] had an efficacy not below 80%.

The next series has as its system Cochliobolus miyabeanus. In words: Cochliobolus test (rice) / protective. Type of series: in vivo. Conditions: 250 ppm of active ingredient, evaluated 4 days after inoculation.
In the case of `CCC(C)Nc1cc(-c2ncnc(Nc3ccc(OC)nc3)n2)ccn1` (centres unmarked) [Compound A14], the efficacy was not below 80%.

Tested on in another series: not listed separately
In words: logP by HPLC on reversed phase columns (EEC directive 79/831 Annex V.A8). The note with it: [c] LC-MS at pH 7.8, 0.001 molar ammonium hydrogen carbonate in water, gradient 10% to 95% acetonitrile.
In the case of `COc1ccc(Nc2ncnc(-c3ccnc(NCCC(C)C)c3)n2)cn1` [Compound A11], the Lop p is 3.27[c].
The same measure, in the same setting: the same measure for `COc1ccc(Nc2ncnc(-c3ccnc(NCCCSC)c3)n2)cn1` [Compound A7]: 2.62[c]; for `COc1ccc(Nc2ncnc(-c3ccnc(NCC(C)C)c3)n2)cn1` [Compound A2, N-(6-methoxypyridin-3-yl)-4-{2-[(2-methylpropyl)amino]pyridin-4-yl}-1,3,5-triazin-2-amine]: 2.52[c].
Regarding `COCC(C)Nc1cc(-c2ncnc(Nc3ccc(OC)nc3)n2)ccn1` (centres unmarked) [Compound A1], the Lop p is 2.25[c];.
Still for that read-out and setting: the same measure for `CCC(O)CNc1cc(-c2ncnc(Nc3ccc(OC)nc3)n2)ccn1` (centres unmarked) [Compound A9]: 1.97[c]; for `C=C(C)CNc1cc(-c2ncnc(Nc3ccc(OC)nc3)n2)ccn1` [Compound A6]: 2.57[c]; for `COc1ccc(Nc2ncnc(-c3ccnc(NCC4CCCO4)c3)n2)cn1` (centres unmarked) [Compound A13]: 2.17[c].
In the case of `CCC(C)Nc1cc(-c2ncnc(Nc3ccc(OC)nc3)n2)ccn1` (centres unmarked) [Compound A14], the Lop p was 2.47[c].
Still for that read-out and setting: the same measure for `COc1ccc(Nc2ncnc(-c3ccnc(NCCOC(C)C)c3)n2)cn1` [Compound A10]: 2.53[c]; for `COc1ccc(Nc2ncnc(-c3ccnc(NC(C)CN(C)C)c3)n2)cn1` (centres unmarked) [Compound A5]: 1.45[c].
For `COc1ccc(Nc2ncnc(-c3ccnc(NCC(C)O)c3)n2)cn1` (centres unmarked) [Compound A8], the Lop p was 1.7[c].
The same measure, in the same setting: the same measure for `CCSCCNc1cc(-c2ncnc(Nc3ccc(OC)nc3)n2)ccn1` [Compound A4]: 2.78[c]; for `COc1ccc(Nc2ncnc(-c3ccnc(NCCSC)c3)n2)cn1` [Compound A12]: 2.44[c].

The series is the same for the next values; noted with them: unmarked values: LC-MS at pH 2.7, 0.1% formic acid in water / acetonitrile, gradient 10% to 95% acetonitrile.
With `CN(CC(F)(F)F)c1cc(-c2ncnc(Nc3ccsc3)n2)ccn1` [Compound A23], the Lop p came to 3.42.
As to `COC1CCCN(c2cc(-c3ncnc(Nc4ccsc4)n3)ccn2)C1` (centres unmarked) [Compound A25], the Lop p is reported as 1.74.
Same read-out and setting: the same measure for `CCN(CC)c1cc(-c2ncnc(Nc3ccsc3)n2)ccn1` [Compound A29]: 1.57; for `COCC(C)Nc1cc(-c2ncnc(Nc3ccc(OC)nc3)n2)ccn1` (centres unmarked) [Compound A1]: 1.3.
With `COCCN(C)c1cc(-c2ncnc(Nc3ccsc3)n2)ccn1` [Compound A26], the Lop p amounted to 1.45.
The same measure, in the same setting: the same measure for `CC(C)C(C)Nc1cc(-c2ncnc(Nc3ccsc3)n2)ccn1` (centres unmarked) [Compound A17]: 1.79.
Same read-out and setting: the same measure for `CCC(C(C)OC)N(C)c1cc(-c2ncnc(Nc3ccsc3)n2)ccn1` (centres unmarked) [Compound A22]: 2.14; for `CN(CC1CC1)c1cc(-c2ncnc(Nc3ccsc3)n2)ccn1` [Compound A21]: 1.75; for `CN(c1cc(-c2ncnc(Nc3ccsc3)n2)ccn1)C1CCCC1` [Compound A34]: 1.93.
Same read-out and setting: the same measure for `CC(C)CCN(C)c1cc(-c2ncnc(Nc3ccsc3)n2)ccn1` [Compound A32]: 2.18; for `COCC(C)Nc1cc(-c2ncnc(Nc3ccsc3)n2)ccn1` (centres unmarked) [Compound A15]: 1.4; for `Nc1cc(-c2ncnc(Nc3ccsc3)n2)ccn1` [Compound A20]: 0.98.
Compound `O=CNc1cc(-c2ncnc(Nc3ccsc3)n2)ccn1` [Compound A36] showed a Lop p of 1.9.
Same read-out and setting: the same measure for `COCCNc1cc(-c2ncnc(Nc3ccsc3)n2)ccn1` [Compound A18]: 1.28; for `CCCC(C)Nc1cc(-c2ncnc(Nc3ccsc3)n2)ccn1` (centres unmarked) [Compound A31]: 1.84; for `CC(C)=CCN(C)c1cc(-c2ncnc(Nc3ccsc3)n2)ccn1` [Compound A33]: 2.14.
Same read-out and setting: the same measure for `CC(C)(C)OC(=O)Nc1cc(-c2ncnc(Nc3ccsc3)n2)ccn1` [Compound A19]: 3.39.
The same measure, in the same setting: the same measure for `CN(C)c1cc(-c2ncnc(Nc3ccsc3)n2)ccn1` [Compound A35]: 1.22.
For `CC(C)CN(C)c1cc(-c2ncnc(Nc3ccsc3)n2)ccn1` [Compound A16], the Lop p came to 1.86.
On the same count and under the same terms, the same measure for `CCCN(C)c1cc(-c2ncnc(Nc3ccsc3)n2)ccn1` [Compound A28]: 1.63; for `C=CCN(C)c1cc(-c2ncnc(Nc3ccsc3)n2)ccn1` [Compound A27]: 1.48; for `CCC(COC)Nc1cc(-c2ncnc(Nc3ccsc3)n2)ccn1` (centres unmarked) [Compound A30]: 1.6.
`CN(CC1CCCO1)c1cc(-c2ncnc(Nc3ccsc3)n2)ccn1` (centres unmarked) [Compound A24] had a Lop p of 1.59.
